Where two headings read alike, the source gives them in different places.
Experiments:
[1] = test system: LNCaP cells; assay: MTT cell growth inhibition, LNCaP;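 also: MTT formazan absorbance at 600 nm read after 72 h of compound exposure, IC50 fitted by nonlinear regression of dose-response curves, samples run in triplicate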
Description: (§2) MDA PCa 2b was seeded at the same density in medium BRFF-HPC1 (Athena Enzyme Systems, Baltimore, Md., USA) supplemented with 20% FBS. After overnight incubation, the medium was changed to a fresh medium containing different concentrations of test compounds diluted from stock DMSO solution. The final concentration of DMSO is 0.5%. After 72 h of incubation with test compounds, 20 μL of 3-(4,5-dimethyl thiazol-2-yl)-2,5-diphenyltetrazolium bromide (MTT) solution (5 mg/mL in PBS) were added to each well and incubated further for 2 h. Next, the supernatant was aspirated and the MTT formazan formed by metabolically viable cells was dissolved in 100 μL of isopropanol. The plates were mixed for 30 min, and the absorbance was measured at 600 nm on a plate reader (FLUOstar OPTIMA, BMG LabTech). All samples were in triplicate. The IC50 values were determined from dose-response curves by nonlinear regression using PRISM v5.00 (GraphPad Software Inc, La Jolla, Calif., USA).
(§3) The in vitro cytotoxicity of 1-20 were evaluated by MTT assays in a panel of prostate cancer cell lines, including LNCaP, MDA PCa 2b, 22Rv1, C4-2B and PC-3.

[2] = test system: C4-2B cells; assay: MTT cell growth inhibition, C4-2B;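 also: cells treated with a dilution series for 72 h, then MTT added and absorbance read at 600 nm, IC50 fitted from dose-response curves by nonlinear regression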
Description: as §2, §3

[3] = test system: 22Rv1 cells; assay: MTT cell growth inhibition, 22Rv1; conditions: MTT
[4] = test system: PC-3 cells; assay: MTT cell growth inhibition, PC-3
[5] = test system: MDA PCa 2b cells; assay: MTT cell growth inhibition, MDA PCa 2b; conditions: MTT;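 also: MDA PCa 2b prostate cancer cells in BRFF-HPC1 with 20% FBS, exposed to compounds for 72 h, viable-cell MTT formazan read as absorbance at 600 nm, 0.5% DMSO vehicle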
[6] = test system: C4-2B cells;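 also: cells treated with a dilution series for 72 h, then MTT added and absorbance read at 600 nm, IC50 fitted from dose-response curves by nonlinear regression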
Description: as §2, §3

[7] = test system: MCF-7 cells; assay: Growth inhibition, MCF-7 breast cancer cells; type: cell-based; conditions: for IC50: Homo sapiens, MCF7, read-out: Cytotoxicity, IC50 (μM) MCF-7
Description: (§1) All samples were in triplicate.

[8] = test system: LNCaP cells;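 also: MTT formazan absorbance at 600 nm read after 72 h of compound exposure, IC50 fitted by nonlinear regression of dose-response curves, samples run in triplicate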
Description: as §2, §3

[9] = test system: PC-3 cells
[10] = test system: MDA-MB-231 cells; assay: Growth inhibition, MDA-MB-231 breast cancer cells; type: cell-based; conditions: for IC50: Homo sapiens, MDA-MB-231
Description: as §1

[11] = test system: H-1975 cells; assay: Growth inhibition, H-1975 lung cancer cells; type: cell-based; conditions: for IC50: Homo sapiens, NCI-H1975, read-out: Cytotoxicity, IC50 (μM) H-1975
Description: as §1

[12] = test system: MDA PCa 2b cells;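 also: MDA PCa 2b prostate cancer cells in BRFF-HPC1 with 20% FBS, exposed to compounds for 72 h, viable-cell MTT formazan read as absorbance at 600 nm, 0.5% DMSO vehicle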
[13] = test system: 22Rv1 cells
[14] = read-out: Cellular IC50 (μM) LNCaP, Table 8
[15] = read-out: Cellular IC50 (μM) C4-2B, Table 8
[16] = read-out: Cellular IC50 (μM) 22Rv1, Table 8
[17] = read-out: Cellular IC50 (μM) PC3, Table 8
[18] = read-out: Cellular IC50 (μM) PCa2b, Table 8
[19] = Table 11, read-out: Cytotoxicity, IC50 (μM) MDA-MB231
[20] = read-out: Cellular IC50 (μM) LNCaP, Table 2, 72 h
[21] = read-out: Cellular IC50 (μM) C4-2B, Table 2, 72 h
[22] = read-out: Cellular IC50 (μM) 22Rv1, Table 2, 72 h
[23] = read-out: Cellular IC50 (μM) PC-3, Table 2, 72 h, max tested 50 μM (β-ionone 150 μM)
[24] = read-out: Cellular IC50 (μM) PCa 2b, Table 2, 72 h

CC1=C(/C=C/C(=O)/C=C/c2ccccc2)C(C)(C)CCC1O (centres unmarked) [Compound B44]
IC50 [1, 14]: 5.8 µM | IC50 [2, 15]: 1.8 µM | IC50 [3, 16]: 8 µM | IC50 [4, 17]: 15.5 µM | IC50 [5, 18]: 12.6 µM

CC(=O)N1N=C(/C=C/C2C(C)=CCCC2(C)C)CC1c1cccc(C(F)(F)F)c1 (centres unmarked) [Compound C2]
IC50 ([6]; human, 72 h): 12.2 µM | IC50 ([7]; Table 11): 23.1 µM | IC50 ([8]; human, 72 h): 16.8 µM | IC50 ([9]; human, 72 h): 15.9 µM | IC50 [10, 19]: 14.4 µM | IC50 ([11]; Table 11): 14.8 µM

CC1=CCCC(C)(C)C1/C=C/C(=O)/C=C/c1cccc([N+](=O)[O-])c1 (racemic) [Compound B21]
IC50 [6]: 4 µM | IC50 [12]: 5.9 µM | IC50 [8]: 3.3 µM | IC50 [9]: 2.9 µM | IC50 [13]: 4.7 µM

CCn1c2ccccc2c2cc(/C=C/C(O)=C/C(=O)/C=C/C3=C(C)CCCC3(C)C)ccc21 [Compound 9]
IC50 ([1]; read-out: IC50 (μM) LNCaP, Table 1, 72 h): 9.9 µM | effect in MCF-7 breast cancer cell line [7]: effective | IC50 ([7]; Table 10): 9.3 µM | IC50 ([2]; read-out: IC50 (μM) C4-2B, Table 1, 72 h): 7.4 µM | IC50 ([3]; read-out: IC50 (μM) 22Rv1, Table 1, 72 h): 4.1 µM | IC50 (μM) PC-3 ([4]; Table 1, 72 h, maximum tested concentration 50 μM): Inactive^c | effect in MDA-MB-231 breast cancer cell line [10]: effective | IC50 ([10]; Table 10, read-out: Cytotoxicity, IC50 (μM) MDA-M B231): 11.7 µM | effect in H-1975 lung cancer cell line [11]: effective | IC50 ([11]; Table 10): 20.9 µM

CC1=CCCC(C)(C)C1/C=C/C(=O)/C=C/c1ccccc1F (racemic) [Compound B19]
IC50 [6]: 6 µM | IC50 [12]: 8.3 µM | IC50 [8]: 1.6 µM | IC50 [9]: 4.8 µM | IC50 [13]: 9.4 µM

CC1=C(/C=C/C(=O)/C=C/c2ccc(F)c(C(F)(F)F)c2)C(C)(C)CCC1O (racemic) [Compound B32]
IC50 [6]: 7.3 µM | IC50 [12]: 10 µM | IC50 [8]: 2.2 µM | IC50 [9]: 7.3 µM | IC50 [13]: 3.2 µM

CC(=O)N1N=C(/C=C/C2C(C)=CCCC2(C)C)CC1c1ccc(C(F)(F)F)cc1 (centres unmarked) [Compound C7]
IC50 ([6]; human, 72 h): 14.4 µM | IC50 ([7]; Table 11): 20.8 µM | IC50 ([8]; human, 72 h): 16.6 µM | IC50 [10, 19]: 20 µM | IC50 ([11]; Table 11): 17.9 µM

CC(O)(CS(=O)(=O)c1ccc(F)cc1)C(=O)Nc1ccc(C#N)c(C(F)(F)F)c1 (centres unmarked) [Bic, bicalutamide, reference compound]
IC50 ([1]; read-out: Cytotoxicity in prostate cancer cell lines IC50 (μM), LNCaP, Part D table, 72 hours, I.A. = Inactive): 12.7 µM | IC50 ([2]; read-out: Cytotoxicity in prostate cancer cell lines IC50 (μM), C4-2B, Part D table, 72 hours, I.A. = Inactive): > 25 µM | IC50 ([3]; read-out: Cytotoxicity in prostate cancer cell lines IC50 (μM), 22Rv1, Part D table, 72 hours): > 50 µM | Cytotoxicity in prostate cancer cell lines IC50 (μM), PC-3 ([4]; Part D table, 72 hours, I.A. = Inactive): I.A. | IC50 ([5]; read-out: Cytotoxicity in prostate cancer cell lines IC50 (μM), PCa-2b, Part D table, 72 hours): > 50 µM

CC1=CCCC(C)(C)C1/C=C/C(=O)/C=C/c1cc(C(F)(F)F)ccc1F (racemic) [Compound B20]
IC50 [6]: 4.7 µM | IC50 [12]: 3 µM | IC50 [8]: 1.7 µM | IC50 [9]: 3.1 µM | IC50 [13]: 3.5 µM

COc1cc(/C=C/C(=O)/C=C/C2=C(C)C(O)CCC2(C)C)ccc1O (centres unmarked) [Compound B68]
IC50 [1, 14]: 19.6 µM | IC50 [2, 15]: 20.3 µM | IC50 [3, 16]: 22.6 µM | IC50 [4, 17]: 32.9 µM | IC50 [5, 18]: > 25 µM

CC1=C(C=CC(=O)C(=Cc2ccc(O)cc2)C(=O)C=Cc2ccc(O)cc2)C(C)(C)CCC1 [Compound 14]
IC50 [1, 20]: 4.5 µM | IC50 [2, 21]: 4 µM | IC50 [3, 22]: 4.7 µM | IC50 [4, 23]: 6.7 µM | IC50 [5, 24]: 4.7 µM

COc1ccc(C2CC(/C=C/C3=C(C)C(O)CCC3(C)C)=NN2C(C)=O)cc1OC (centres unmarked) [Compound C3]
IC50 ([6]; human, 72 h): 22.1 µM | IC50 ([7]; Table 11): > 25 µM | IC50 ([8]; human, 72 h): 24.7 µM | IC50 ([9]; human, 72 h): 25.5 µM | IC50 [10, 19]: > 25 µM | IC50 ([11]; Table 11): > 25 µM

COc1cc(C=CC(=O)C(=Cc2cc(OC)c(O)c(OC)c2)C(=O)C=CC2=C(C)CCCC2(C)C)cc(OC)c1O [Compound 15]
IC50 [1, 20]: 8.7 µM | IC50 [2, 21]: 8.5 µM | IC50 [3, 22]: 17.6 µM | IC50 [4, 23]: 12.5 µM | IC50 [5, 24]: 15.3 µM

CC1=C(/C=C/C(=O)/C=C/c2ccc(C(F)(F)F)cc2)C(C)(C)CCC1O (racemic) [Compound B26]
IC50 [12]: 9.3 µM | IC50 [8]: 3 µM | IC50 [9]: 10.2 µM | IC50 [13]: 3.2 µM

CC1=C(/C=C/C(=O)/C=C/c2ccccc2C(F)(F)F)C(C)(C)CCC1O (racemic) [Compound B24]
IC50 [12]: 2.9 µM | IC50 [8]: 2.9 µM | IC50 [9]: 3.7 µM | IC50 [13]: 2.3 µM

From US8470889B2 (TRT Pharma Inc., priority 2008, dated 2013)
